Test results: paper PMC2099433, “The binding site for neohesperidin dihydrochalcone at the human sweet taste receptor” (BMC Structural Biology, 2007)
Where a chain is given by its changes, count along the chain named. Where a SMILES comes first, the peptide text is derived from it.

Legend:
[1] = biological target: T1, hTAS1R2 + hTAS1R3 G804A^7.42 (Homo sapiens, UniProt Q7RTX0+Q8TE23, G804A); experiment: Calcium response (FLIPR), hTAS1R3 mutant coexpressed with hTAS1R2; format: cell-based; conditions: variant G804A^7.42; for Emax: read-out: maximal signal (% of wt)
T1 construct: expressed in transfected cells; host or cells: HEK293T cells stably expressing G16Gust44
T1 sequence (Q7RTX0 21-852 G804A): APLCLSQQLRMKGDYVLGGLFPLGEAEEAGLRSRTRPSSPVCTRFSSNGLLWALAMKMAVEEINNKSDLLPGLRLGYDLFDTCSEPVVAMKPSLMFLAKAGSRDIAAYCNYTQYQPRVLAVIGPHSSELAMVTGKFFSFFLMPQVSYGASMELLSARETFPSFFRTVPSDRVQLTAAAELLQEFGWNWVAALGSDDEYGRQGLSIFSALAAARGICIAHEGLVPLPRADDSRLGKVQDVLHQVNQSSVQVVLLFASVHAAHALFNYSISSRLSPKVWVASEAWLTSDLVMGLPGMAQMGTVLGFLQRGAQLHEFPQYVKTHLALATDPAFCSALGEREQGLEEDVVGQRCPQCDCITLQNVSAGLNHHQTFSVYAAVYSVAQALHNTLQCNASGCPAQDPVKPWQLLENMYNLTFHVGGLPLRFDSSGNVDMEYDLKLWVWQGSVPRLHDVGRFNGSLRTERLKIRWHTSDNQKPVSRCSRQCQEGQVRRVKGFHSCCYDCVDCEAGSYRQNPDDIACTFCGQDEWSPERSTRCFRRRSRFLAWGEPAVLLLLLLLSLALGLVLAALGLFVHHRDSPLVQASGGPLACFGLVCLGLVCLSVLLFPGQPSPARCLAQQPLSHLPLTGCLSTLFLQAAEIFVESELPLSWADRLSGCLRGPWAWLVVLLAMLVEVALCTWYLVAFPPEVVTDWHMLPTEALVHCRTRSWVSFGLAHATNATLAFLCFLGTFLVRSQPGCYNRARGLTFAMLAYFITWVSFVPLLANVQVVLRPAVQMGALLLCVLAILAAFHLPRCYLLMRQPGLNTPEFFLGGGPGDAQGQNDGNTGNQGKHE
T1 sequence (Q8TE23 20-839): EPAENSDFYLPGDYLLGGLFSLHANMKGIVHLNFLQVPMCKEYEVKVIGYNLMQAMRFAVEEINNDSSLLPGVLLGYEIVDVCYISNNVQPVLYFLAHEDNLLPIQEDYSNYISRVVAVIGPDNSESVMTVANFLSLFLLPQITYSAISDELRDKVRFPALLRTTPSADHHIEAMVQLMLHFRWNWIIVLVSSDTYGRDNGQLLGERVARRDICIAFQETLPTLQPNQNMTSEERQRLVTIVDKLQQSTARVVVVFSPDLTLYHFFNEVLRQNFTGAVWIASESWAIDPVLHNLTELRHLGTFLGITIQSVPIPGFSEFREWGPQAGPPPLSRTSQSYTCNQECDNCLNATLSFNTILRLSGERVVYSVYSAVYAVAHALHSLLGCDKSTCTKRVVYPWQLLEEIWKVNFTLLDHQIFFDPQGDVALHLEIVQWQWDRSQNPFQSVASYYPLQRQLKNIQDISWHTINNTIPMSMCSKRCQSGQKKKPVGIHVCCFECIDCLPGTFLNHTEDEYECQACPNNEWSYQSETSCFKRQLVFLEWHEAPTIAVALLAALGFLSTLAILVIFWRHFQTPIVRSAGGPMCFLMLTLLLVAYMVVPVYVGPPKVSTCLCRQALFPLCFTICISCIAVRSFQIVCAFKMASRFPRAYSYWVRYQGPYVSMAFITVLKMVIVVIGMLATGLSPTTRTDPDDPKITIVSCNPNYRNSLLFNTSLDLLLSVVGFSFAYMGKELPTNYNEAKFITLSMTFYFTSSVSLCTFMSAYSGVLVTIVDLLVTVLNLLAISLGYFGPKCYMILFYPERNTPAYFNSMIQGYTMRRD
How it was run: (§1)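 Calcium mobilization was measured by FLIPR in Fluo4-AM-loaded HEK293T cells coexpressing G16Gust44 with the tagged receptor pair. Signals had mock responses removed and were given as ΔF/F.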

[2] = biological target: T2, hTAS1R2 + hTAS1R3 Y699F^4.60 (Homo sapiens, UniProt Q7RTX0+Q8TE23, Y699F); experiment: as above; format: cell-based; conditions: variant Y699F^4.60; for Emax: read-out: maximal signal (% of wt)
T2 construct: expressed in transfected cells; host or cells: HEK293T cells stably expressing G16Gust44
T2 sequence (Q7RTX0 21-852 Y699F): T1 sequence (Q7RTX0 21-852 G804A) with Y679F, A784G
T2 sequence (Q8TE23 20-839): T1 sequence (Q8TE23 20-839)
How it was run: as §1

EC50 [1]	Emax [1]	EC50 [2]	Emax [2]	Structure (SMILES)
1300 ± 500 µM	53 ± 10%	600 ± 400 µM	72 ± 17%	COc1ccc(CCC(=O)c2c(O)cc(O[C@@H]3O[C@H](CO)[C@@H](O)[C@H](O)[C@H]3O[C@@H]3O[C@@H](C)[C@H](O)[C@@H](O)[C@H]3O)cc2O)cc1O [NHDC, neohesperidin dihydrochalcone]
1600 ± 200 µM	44 ± 1%	1200 ± 300 µM	56 ± 2%	COC(=O)[C@H](Cc1ccccc1)NC(=O)[C@@H](N)CC(=O)O [aspartame] (HELM PEPTIDE1{D.F.[CO[*:1]]}$$$$V2.0)
